{
  "source": "paper PMC5535166",
  "about": "(Toxins, 2017)",
  "molecular_target": "T1, rShGST (recombinant Schistoma japonicum GST) (Schistosoma japonicum, UniProt P08515)",
  "T1 construct": "GST expressed from the empty vector pGEX-6P-1 (vector-encoded C-terminal linker), E. coli BL21(DE3), Glutathione Sepharose",
  "T1 sequence (P08515 2-218)": "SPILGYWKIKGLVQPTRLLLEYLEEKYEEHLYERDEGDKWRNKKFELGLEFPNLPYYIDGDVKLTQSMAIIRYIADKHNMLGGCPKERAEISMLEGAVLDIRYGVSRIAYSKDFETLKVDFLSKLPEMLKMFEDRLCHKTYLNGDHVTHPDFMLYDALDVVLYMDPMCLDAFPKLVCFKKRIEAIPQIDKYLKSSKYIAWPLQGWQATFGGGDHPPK",
  "test": "GST activity with CDNB, absorbance at […] nm",
  "format": "biochemical",
  "conditions": "100 µM inhibitor; 1 mM CDNB, 1 mM GSH, 0.1 M phosphate pH 6.5",
  "data": [
    {"compound": "C=C(CC)C(=O)c1ccc(OCC(=O)O)c(Cl)c1Cl", "note": "[ethacrynic acid]", "values": [
      {"measurement": "GST activity, % of control at 100 μM", "result": "Ethacrynic acid strongly inhibited the GST activity of recombinant Schistoma japonicum GST (rShGST)"}
    ]}
  ]
}
